In series [1] the test system is LNCaP. Briefly: Inhibition of PIP5K1alpha protein expression in human LNCAP cells assessed as reduction in AKT phosphorylation at Ser473 residues at 20 uM incubated for 48 hrs by immunoblot analysis relative to control. Type of series: functional.
Series [2] deals with LNCaP. Nature of the series: Effect on CREB phosphorylation in human LNCAP cells at 20 uM incubated for 48 hrs by immunoblot analysis. The class given is functional, cell-based.
Series [3] concerns PC-3. Briefly: Inhibition of PIP5K1alpha protein expression in human PC3 cells assessed as reduction in AKT phosphorylation at Ser473 residues at 50 uM incubated for 48 hrs by immunoblot analysis relative to control. The class given is functional, cell-based.
In series [4] the test system is PC-3. Briefly: Inhibition of PIP5K1alpha protein expression in human PC3 cells at 50 nM incubated for 48 hrs by immunoblot analysis. Type of series: functional, cell-based.
The subject of series [5] is PC-3. Nature of the series: Antitumor activity against human PC3 cells xenografted in mouse assessed as reduction in volume at 10 mg/kg dosed every second day starting from day 0 and ending on day 20 relative to control. The class given is functional, organism-based.
Series [6] is described as follows: Toxicity in mouse xenografted with human PC3 cells at 10 mg/kg dosed every second day starting from day 0 and ending on day 20 relative to control. The class given is organism-based. The following applies: in vivo.
Series [7] relates to LNCaP. Briefly: Inhibition of PIP5K1alpha protein expression in human LNCAP cells assessed as reduction in AKT phosphorylation at Ser473 residues at 50 nM incubated for 48 hrs by immunoblot analysis relative to control. Type of series: functional, cell-based.
Series [8] has as its system LNCaP. Nature of the series: Effect on CREB phosphorylation in human LNCAP cells at 50 nM incubated for 48 hrs by immunoblot analysis. Type of series: functional, cell-based.
For series [9], the system named is LNCaP. Nature of the series: Inhibition of AR protein expression in human LNCAP cells at 50 nM incubated for 48 hrs by immunoblot analysis. Type of series: functional, cell-based.
In series [10] the test system is LNCaP. Briefly: Inhibition of PSA protein expression in human LNCAP cells at 50 nM incubated for 48 hrs by immunoblot analysis. The class given is functional, cell-based.
In series [11] the test system is PC-3. Briefly: Induction of morphological changes in human PC3 cells assessed as reduction in cell size at 100 nM incubated for 48 hrs by live cell imaging system based assay. The class given is functional.
The subject of series [12] is PC-3. Briefly: Induction of morphological changes in human PC3 cells assessed as changes in morphology at 100 nM incubated for 48 hrs by live cell imaging system based assay. Type of series: functional.
Series [13] relates to PC-3. Briefly: Inhibition of PIP5K1alpha protein expression in human PC3 cells assessed as reduction in AKT phosphorylation at Ser473 residues at 100 nM incubated for 48 hrs by immunoblot analysis relative to control. The class given is functional, cell-based.
The test system of series [14] is PC-3. Briefly: Inhibition of PIP5K1alpha protein expression in human PC3 cells assessed as reduction in FAK phosphorylation incubated for 48 hrs by immunoblot analysis relative to control. Type of series: functional, cell-based.
Series [15] has as its system PC-3. Nature of the series: Induction of apoptosis in human PC3 cells assessed as viable cells at 100 nM incubated for 48 hrs by Annexin-/7-AAD staining based FACS analysis (reference value: 94.31%). The following applies: PC-3, 48 h, read-out: Activity. The class given is functional.
The subject of series [16] is PC-3. Nature of the series: Induction of apoptosis in human PC3 cells assessed as early apoptotic cells at 100 nM incubated for 48 hrs by Annexin-/7-AAD staining based FACS analysis (reference value: 2.53%). The class given is functional.
In series [17] the test system is PC-3. Nature of the series: Induction of apoptosis in human PC3 cells assessed as late apoptotic cells at 100 nM incubated for 48 hrs by Annexin-/7-AAD staining based FACS analysis (reference value: 2.83%). Type of series: functional.
For series [18], the system named is PC-3. Nature of the series: Induction of apoptosis in human PC3 cells assessed as necrotic cells at 100 nM incubated for 48 hrs by Annexin-/7-AAD staining based FACS analysis (reference value: 0.32%). Type of series: functional.

The source made the active and inactive calls. The rule behind the calls is not given here.

As for `COc1cc([C@@H]2c3cc4c(cc3[C@@H](O[C@@H]3O[C@@H]5CO[C@@H](C)O[C@H]5[C@H](O)[C@H]3O)[C@H]3COC(=O)[C@H]23)OCO4)cc(OC)c1O`, the inhibition entry in the series with LNCaP [1] and with PC-3 [3] was “inactive” in each case. The outcome in the series with LNCaP [2] was inactive.
Regarding `CC(=O)O[C@@]12CO[C@@H]1C[C@H](O)[C@@]1(C)C(=O)[C@H](O)C3=C(C)[C@@H](OC(=O)[C@H](O)[C@@H](NC(=O)OC(C)(C)C)c4ccccc4)C[C@@](O)([C@@H](OC(=O)c4ccccc4)[C@H]21)C3(C)C` [DOCETAXEL ANHYDROUS], the inhibition result with PC-3 [4], with LNCaP [7], in the series with LNCaP [9], with LNCaP [10], with PC-3 [13] and in the series on PC-3 [14] was “inactive” throughout. Further, the outcome in the series with PC-3 [5], in the series on PC-3 [11] and in the series on PC-3 [12] was Active. Besides, the Activity result in series [6] is recorded as “Toxic”; in the series on PC-3 [16] it was 2.73%; in the series with PC-3 [17], 6.36%; with PC-3 [18], 1.15%. The outcome in the series with LNCaP [8] was inactive. The viability at 0.1 µM in the series on PC-3 [15] came to 89.8%.
For `CN1CC(=O)N2[C@H](c3ccc4c(c3)OCO4)c3[nH]c4ccccc4c3C[C@@H]2C1=O`, the inhibition result with LNCaP [1] and in the series with PC-3 [3] was “inactive” throughout. Further, the outcome in the series on LNCaP [2] was inactive.

For the origin of these results see ChEMBL document CHEMBL4419175, “Compositions for treatment, diagnosis and prognosis of diseases” (2016).
